Source: ChEMBL document CHEMBL1201862, “PubChem BioAssay data set” (2004)
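1) Cells in 96-well plates. 2) Compound, 48 h, 5 concentrations. 3) Linear interpolation between surrounding doses. 4) Unreached endpoint = highest concentration. Here, GI50 denotes the concentration required for 50% inhibition of growth.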 Active and inactive are the calls of the source. Rule as the data show it: active = GI50 up to about 1.1 µM and inactive = higher.

Key:
Experiment in all cases: NCI anticancer screen, dose series, 48 h
SN12C = system: SN12C
Malme-3M = system: Malme-3M
UACC-62 = system: UACC-62
A498 = system: A498
HT-29 = system: HT-29
OVCAR-8 = system: OVCAR-8
NCI-H23 = system: NCI-H23
SNB-19 = system: SNB-19
ACHN = system: ACHN
KM12 = system: KM12
A549 = system: A549
COLO 205 = system: COLO 205
EKVX = system: EKVX
HCC 2998 = system: HCC 2998
SW-620 = system: SW-620
CAKI-1 = system: CAKI-1
786-0 = system: 786-0
SK-MEL-5 = system: SK-MEL-5

Measured: GI50

Cn1cnc([N+](=O)[O-])c1Sc1nccn1-c1cccc2ccccc12
inactive: SN12C 31.7 µM | Malme-3M 13.7 µM | UACC-62 16.4 µM | A498 32.7 µM | HT-29 23.9 µM | OVCAR-8 20.8 µM | NCI-H23 23 µM | SNB-19 94 µM | ACHN 26.4 µM | KM12 35.7 µM | A549 35 µM | COLO 205 16.7 µM | EKVX 26.9 µM | HCC 2998 45.5 µM | SW-620 26.2 µM | CAKI-1 30.9 µM | 786-0 48.1 µM | SK-MEL-5 29.2 µM

Cn1cc2ccccc2c1-c1nc(F)nc(OCC(=O)[C@H]2CCC3[C@@H]4CCC5=CC(=O)CC[C@]5(C)C4[C@@H](O)C[C@@]32C)n1 (some centres not stated)
inactive: SN12C 15.7 µM | Malme-3M 18.9 µM | UACC-62 17.1 µM | A498 17.3 µM | HT-29 21.6 µM | OVCAR-8 7.13 µM | NCI-H23 7.78 µM | SNB-19 19.4 µM | ACHN 17.7 µM | KM12 16.6 µM | A549 32.4 µM | COLO 205 20 µM | EKVX 23.4 µM | HCC 2998 25.6 µM | SW-620 8.04 µM | CAKI-1 3.92 µM | 786-0 16.5 µM | SK-MEL-5 20.3 µM

O=C1CC[C@@H](S(=O)(=O)c2ccccc2)[C@H](/C=C/c2ccccc2)O1
inactive: SN12C > 100 µM | Malme-3M > 100 µM | UACC-62 > 100 µM | A498 > 100 µM | HT-29 > 100 µM | OVCAR-8 > 100 µM | NCI-H23 > 100 µM | SNB-19 > 100 µM | ACHN > 100 µM | KM12 > 100 µM | A549 > 100 µM | COLO 205 > 100 µM | EKVX > 100 µM | HCC 2998 > 100 µM | SW-620 > 100 µM | 786-0 > 100 µM | SK-MEL-5 > 100 µM

COc1ccc2occ(CCC(=O)O)c2c1
inactive: SN12C > 100 µM | UACC-62 > 100 µM | A498 > 100 µM | HT-29 > 100 µM | OVCAR-8 > 100 µM | NCI-H23 > 100 µM | SNB-19 > 100 µM | ACHN > 100 µM | A549 > 100 µM | COLO 205 > 100 µM | EKVX > 100 µM | HCC 2998 > 100 µM | SW-620 > 100 µM | CAKI-1 > 100 µM | 786-0 > 100 µM | SK-MEL-5 > 100 µM

Cc1cccc(C)c1NC(=O)CCC/C(CC(=O)c1ccc(F)cc1)=N\NC(=O)C(=O)NN
inactive: SN12C > 100 µM | Malme-3M > 100 µM | UACC-62 > 100 µM | A498 > 100 µM | HT-29 > 100 µM | OVCAR-8 > 100 µM | NCI-H23 > 100 µM | SNB-19 > 100 µM | ACHN > 100 µM | KM12 > 100 µM | A549 > 100 µM | COLO 205 > 100 µM | EKVX > 100 µM | HCC 2998 > 100 µM | SW-620 > 100 µM | CAKI-1 > 100 µM | 786-0 > 100 µM | SK-MEL-5 > 100 µM

NC(=O)c1ccccc1NC(=O)C(=O)C(C(=O)c1ccc(Cl)c(Cl)c1)C1OC(=O)c2ccccc21 (configuration not stated)
inactive: SN12C 44.4 µM | Malme-3M 14.5 µM | UACC-62 30.8 µM | A498 31.8 µM | HT-29 34.8 µM | OVCAR-8 39.6 µM | NCI-H23 39.5 µM | SNB-19 45 µM | ACHN 59.3 µM | KM12 60.4 µM | A549 43.1 µM | COLO 205 41.8 µM | EKVX > 100 µM | HCC 2998 49.8 µM | SW-620 46.5 µM | CAKI-1 52.6 µM | 786-0 48.8 µM

O=C(/C=C/c1ccc([N+](=O)[O-])o1)N1CCN(Cc2ccccc2)CC1
inactive: SN12C 9.04 µM | UACC-62 6.82 µM | A498 15.7 µM | HT-29 5.81 µM | OVCAR-8 12.2 µM | NCI-H23 5.93 µM | SNB-19 16.2 µM | ACHN 14.7 µM | KM12 12.1 µM | A549 16.9 µM | EKVX 22.4 µM | HCC 2998 15.7 µM | SW-620 7.08 µM | CAKI-1 8.17 µM | 786-0 12.7 µM | SK-MEL-5 10.2 µM

Cc1ccc(C)c(NC(=O)CCc2n[nH]c(=S)o2)c1
inactive: SN12C > 100 µM | Malme-3M > 100 µM | UACC-62 > 100 µM | A498 > 100 µM | HT-29 > 100 µM | OVCAR-8 > 100 µM | NCI-H23 > 100 µM | SNB-19 > 100 µM | ACHN > 100 µM | KM12 > 100 µM | A549 > 100 µM | COLO 205 > 100 µM | EKVX > 100 µM | HCC 2998 > 100 µM | SW-620 > 100 µM | CAKI-1 > 100 µM | 786-0 > 100 µM | SK-MEL-5 > 100 µM

COc1ccc2[nH]c3c4c(cc(-c5ccccc5)c3c2c1)C(=O)N(c1ccccc1)C4=O
inactive: SN12C 21.5 µM | Malme-3M 20.4 µM | UACC-62 21.7 µM | A498 > 45.6 µM | HT-29 22.7 µM | OVCAR-8 6.05 µM | NCI-H23 31.9 µM | SNB-19 23.6 µM | ACHN > 41.5 µM | KM12 33.3 µM | A549 13.8 µM | COLO 205 17.7 µM | EKVX 38.6 µM | HCC 2998 > 100 µM | SW-620 11.4 µM | CAKI-1 27 µM | 786-0 4.9 µM | SK-MEL-5 12.3 µM

COc1cc2c(c(OC)c1)C(=O)C(=O)C(CC1(C)OCCCO1)=C2
inactive: SN12C 13.2 µM | Malme-3M 8.2 µM | UACC-62 7.91 µM | A498 17.2 µM | HT-29 18.4 µM | OVCAR-8 11.5 µM | NCI-H23 9.12 µM | SNB-19 22.2 µM | ACHN 6.61 µM | KM12 16 µM | A549 10.9 µM | COLO 205 3.49 µM | EKVX 15.9 µM | HCC 2998 16.4 µM | SW-620 1.79 µM | CAKI-1 5.43 µM | 786-0 9.1 µM | SK-MEL-5 6.05 µM

CC[N+](C)(CC)CC(C)(C)C(=O)/C=C/c1ccc(/C=C/C(=O)C(C)(C)C[N+](C)(CC)CC)cc1
inactive: SN12C > 100 µM | Malme-3M > 100 µM | UACC-62 > 100 µM | A498 > 100 µM | HT-29 > 100 µM | OVCAR-8 > 100 µM | NCI-H23 > 100 µM | SNB-19 > 100 µM | ACHN > 100 µM | KM12 > 100 µM | A549 > 100 µM | COLO 205 > 100 µM | EKVX > 100 µM | HCC 2998 > 100 µM | SW-620 > 100 µM | CAKI-1 > 100 µM | 786-0 > 100 µM | SK-MEL-5 > 100 µM
